Here are results for 2 compounds from patent US12359188B2, “Method for producing therapeutic exosomes from nanoelectroporation and other non-endocytic cell transfection” (Ohio State Innovation Foundation, priority 2017, dated 2025).

The test system of the experiment is NEP transfected MEF cells. Briefly: Effect of HSP70/HSP90 inhibitors on EV secretion from NEP transfected MEF cells (DLS goniometry). It counts as cell-based, mouse. Particulars: medium collected 24 h post-transfection. Here is the method:
After NEP transfection, the cell culture was replaced with fresh medium containing HSP70 inhibitor (VER 155008, 50 μM), HSP90 inhibitor (NVP-HSP990, 1 μM), or their mixture. Medium was collected at 24 h post-transfection, and EV numbers were detected by dynamic light scattering (DLS) goniometry;
During electroporation, Joule heating caused by the imposed electric field could tentatively increase the cell temperature to cause thermal shocking to the transfected cells. It is known that thermal shocking may increase cell secretion of EVs due to chaperone mediated autophage caused by the increase of heat shock proteins in cells (8-10). […] When HSP inhibitors were added in cell culture medium after electroporation, EV secretion could be suppressed. […] Here, the cell culture was replaced with fresh medium containing HSP70 inhibitor (VER 155008), HSP90 inhibitor (NVP-HSP990), or their mixture right after NEP transfection. Medium was collected at 24 h post-transfection and EV numbers were detected by dynamic light scattering (DLS) goniometry.

For the compound `COc1cccc(-c2cc(F)ccc2[C@H]2Cc3nc(N)nc(C)c3C(=O)N2)n1` [NVP-HSP990], the “decrease of EV secretion” value (HSP90 inhibitor 1 μM in fresh medium right after NEP transfection) is 40%.

Turning to `N#Cc1ccc(COC[C@H]2O[C@@H](n3c(NCc4ccc(Cl)c(Cl)c4)nc4c(N)ncnc43)[C@H](O)[C@@H]2O)cc1` [VER 155008], the “decrease of EV secretion” value (HSP70 inhibitor 50 μM in fresh medium right after NEP transfection) came to 50%.
